# Measured values reported in patent publication US20230357179A1, “RAF KINASE INHIBITORS AND METHODS OF USE THEREOF” (Deciphera Pharmaceuticals, LLC, priority 2021, published 2023).
# System: WM3629 cells
# Test: WM3629 cell proliferation assay (1), resazurin, 96-well
# Type: cell-based
# Conditions: inhibition of cell proliferation
# Procedure: WM3629 Cell Proliferation Assay (1)
# WM3629 cells (#WM3629-01-0001) are obtained from Rockland Immunochemicals Inc (Gilbertsville, PA). Briefly, cells were grown in MCDB 153 medium (Sigma, #M7403, St. Louis, MO) supplemented with 20% Leibovitz's L-15 (ThermoFisher #11415-064, Waltham, MA), 2% heat inactivated fetal bovine serum (ThermoFisher, #A3840001, Waltham, MA), 5 μg/mL Insulin (Bovine Pancreas) (Sigma, #I0516, St. Louis, MO), 1.68 mM Calcium Chloride (Sigma, #C-34006, St. Louis, MO) and 1% Penicillin/Streptomycin/L-Glutamine (ThermoFisher #10378016, Waltham, MA) at 37° C., 5% CO2, and 95% humidity. Cells are expanded until reaching 70-95% confluency at which point they are subcultured or harvested for assay use. A serial dilution of test compound is dispensed into a 96-well black clear bottom plate in triplicate. Four thousand five hundred cells are added per well in 200 μL complete growth medium in the 96-well plate. Plates are incubated for 67-72 hours at 37° C., 5% CO2, and 95% humidity. At the end of the incubation, 40 μL of a 440 μM solution of resazurin (Sigma, #199303, St. Louis, MO) in PBS is added to each well of the plate and plates are incubated for an additional 6-7 hours at 37° C., 5% CO2, and 95% humidity. Plates are read on a Synergy2 or equivalent reader (Biotek, Winooski VT) using an excitation of 540 nm and an emission of 600 nm. Data is analyzed using Prism software (GraphPad, San Diego, CA) to calculate IC50 values.
row,Compound,IC50 [nM]
1,Cc1ncc(NC(=O)NCCC2(C)CC2)cc1-c1ccnc(-c2ccnc(NC(=O)C3CC3)c2)n1 [Example 107],≤ 100
2,COC(=O)Nc1cc(-c2cc(-c3cc(NC(=O)NCCC(C)C)c(F)cc3C)cc(OCCO)n2)ccn1 [Example 115],≤ 100
3,CNC(=O)c1cc(-c2cnnc(-c3cc(NC(=O)NCCC(C)(C)C)c(F)cc3C)c2)ccn1 [Example 119],100 to 500
4,COC(=O)Nc1cc(-c2cc(-c3cc(NC(=O)NC4CC(C)(C)C4)cnc3C)cc(OCCO)n2)ccn1 [Example 156],≤ 100

# System: Miapaca-2 cells
# Test: MiaPaca-2 combination cell proliferation assay (1) with cobimetinib, 96-well
# Type: cell-based
# Conditions: inhibition of cell proliferation, read-out: MiaPaca-2 Combo (1) IC50
# Procedure: MiaPaca-2 Combination Cell proliferation Assay (1)
# Miapaca-2 cells (catalog #CRL-1420) are obtained from the American Type Culture Collect (ATCC, Manassas, VA). Briefly, cells were grown in DMEM supplemented with 10% characterized fetal bovine serum (Invitrogen, Carlsbad, CA), 2.5% New Zealand sourced horse serum and 1% Penicillin/Streptomycin/L-Glutamine at 37° C., 5% CO2, and 95% humidity. Cells are expanded until reaching 70-95% confluency at which point they are subcultured or harvested for assay use. A serial dilution of test compound was dispensed into multiple 96-well black clear bottom plates in triplicate. A serial dilution of complete growth medium containing cobimetinib was prepared at twice the final concentration and 100 μL was dispensed across the test compound titration in triplicate. Three thousand cells are added per well in 100 μL complete growth medium in each 96-well plate. Plates are incubated for 67-72 hours at 37° C., 5% CO2, and 95% humidity. At the end of the incubation, 40 μL of a 440 μM solution of resazurin (Sigma, St. Louis, MO) in PBS is added to each well of the plate and plates are incubated for an additional 5-7 hours at 37° C., 5% CO2, and 95% humidity. Plates are read on a Synergy2 or equivalent reader (Biotek, Winooski VT) using an excitation of 540 nm and an emission of 600 nm. Drug synergy was assessed via BLISS analysis in the Combenefit software (Cancer Research UK Cambridge Institute, Cambridge, UK). Data is analyzed using Prism software (GraphPad, San Diego, CA) to calculate IC50 values. Shifts in test compound IC50 values are reported from top-constrained combination therapy curves.
row,IC50 [nM],Compound
1,≤ 100,"Cc1ccc(NC(=O)Nc2cccc(C(F)(F)F)c2)cc1-c1cc(OCCO)nc(N2CCOCC2)c1 [Example 3, 1-(3-(2-(2-hydroxyethoxy)-6-morpholinopyridin-4-yl)-4-methylphenyl)-3-(3-(trifluoromethyl)phenyl)urea]"
2,≤ 100,Cc1cc(F)c(NC(=O)NCCC(C)(C)C)cc1-c1cc(OCCO)nc(C2=CCOCC2)c1 [Example 7]
3,≤ 100,Cc1ncc(NC(=O)NCCC2(C)CC2)cc1-c1cc(OCCO)nc(-c2ccnc(NC(=O)C3CC3)c2)c1 [Example 113]
